The target of one experiment is T1, S100B (Homo sapiens, UniProt P04271).
T1 construct: purchased Abbexa abx060130
T1 sequence (P04271 1-92): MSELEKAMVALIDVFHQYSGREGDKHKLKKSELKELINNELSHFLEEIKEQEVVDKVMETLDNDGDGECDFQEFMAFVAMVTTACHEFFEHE
The following applies: ref literature (citation numbers not shown in text); read-out: binding affinity K d; cited from earlier work. From the text:
(§1) It interacts with S100B through a combination of hydrophobic and electrostatic interactions, stabilizing the protein structure and enhancing calcium-ion-binding affinity. […] By integrating TRTK12 into advanced optical biosensing systems, ...

A further experiment concerns other S100 proteins. Conditions: unlike other peptides; ref literature (citation numbers not shown in text); cited from earlier work.
Text: as §1

Experiment [1] addresses fluorescently labeled peptide-nucleic acid (PNA) beacon with the peptide TRTK12 as the biorecognition element. Description: other fluorescence titration; beacon fixed at 500 nM, S100B 0-100 nM; donor (5-FAM) emission of the FAM/Dabcyl FRET beacon, excitation 499 nm; 50 mM Tris-HCl pH 7.0, 240 mM NaCl, 20 mM CaCl2; 35 °C; 60 min incubation; two-site binding model fitted to the calibration curve.

With TRTKIDWNKILS [TRTK12], on S100B, the Kd was approximately 260 nM. Besides, in the experiment with other S100 proteins, the cross-reactivity result is listed as “minimal cross-reactivity with other S100 proteins”.

B1: S100B protein (natural protein)
chain: MSELEKAMVALIDVFHQYSGREGDKHKLKKSELKELINNELSHFLEEIKEQEVVDKVMETLDNDGDGECDFQEFMAFVAMVTTACHEFFEHE
As to B1, in experiment [1], the half-saturation constant of the high-affinity site (two-site binding model) stood at 0.145 nM and the half-saturation constant of the lower-affinity site (two-site binding model) worked out at 364 nM.

The values above are taken from article PMC12635975, “Peptide-Based Fluorescent Biosensing System for the Detection of the Melanoma Biomarker S100B” (Bioconjugate Chemistry, 2025).
